Tested on: BNC1 and ADAMTS1 gene expression in pancreatic cancer cell lines (Panc1, MIA-PaCa2, Capan1, PL45)
Assay: Quantitative RT-PCR re-expression of silenced BNC1 and ADAMTS1 after drug treatment
Assay type: cell-based, human
Details: 5 uM DAC or 300 nM TSA, relative to mock-treated cells; TSA result excepts PL45
Description: FIGS. 2A, 2B, and 2C depict promoter methylation gels and corresponding bar graphs, a CpG methylation diagram, and a schematic depicting methylation-on-bead (MOB) technology, respectively. […] M=methylation signal; U=unmethylated signal. IVD=in vitro methylated DNA. Real-time RT-PCR expression is shown as fold change ±SE relative to mock-treated cells during 5 uM 5-Aza-deoxycitidine (DAC) and 300 nM Trichostatin A (TSA) treatments. […] The BNC1 promoter regions is depicted as a line, with CpG regions designated as vertical slashes. TIS indicates the transcriptional start site. Location of CpG sites (bisulfite priners (BST): upstream region from −331 to +36 relative to transcriptional start site). […] Samples are analyzed using MS-qFRET or gel electrophoresis.
This genome-wide DNA hypermethylome screening is based on a pharmacological approach using 5-deoxy-azacytidineand TSA, which has shown an excellent correlation between promoter DNA methylation and inhibition of gene expression and re-expression after treatment with a DNA demethylating drug, such as 5-deoxy-azacytidine, in prior studies on breast and colorectal cancer. Here, promoter methylation of BNC1 and ADAMTS1 was tested, and correlated with a lack of gene expression in pancreatic cancer cell lines (Panc1, MIA-PaCa2, Capan1, and PL45) using quantitative RT-PCR (qRT-PCR) (FIG. 2A, upper panel). […]

Structure (SMILES): CC(/C=C/C(=O)NO)=C\[C@@H](C)C(=O)c1ccc(N(C)C)cc1 [TSA, Trichostatin A]
- re-expression of BNC1 and ADAMTS1 (qRT-PCR): minimal re-expression

Structure (SMILES): Nc1ncn([C@H]2C[C@H](O)[C@@H](CO)O2)c(=O)n1 [5-deoxy-azacytidine]
- re-expression of BNC1 and ADAMTS1 (qRT-PCR): significant re-expression

— patent publication US20200239962A1, “COMPOSITIONS AND METHODS FOR DETECTING A NEOPLASIA” (The Johns Hopkins University, priority 2010, published 2020)
